Measurements: patent publication US12492210B2, “Tricyclic compounds and their use” (HUTCHISON MEDIPHARMA LIMITED, priority 2019, dated 2025)

Legend:
MAPK1(ERK2) enzyme = target: T1, MAPK1(ERK2) enzyme (Homo sapiens, UniProt P28482); assay: Z-Lyte Kinase Assay of ERK2; type: biochemical; settings: read-out: Example 18 IC50
T1 construct: purchased Invitrogen PV3313
How it was run: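 FRET-based Z-LYTE assay using ERK2 kinase with Ser/Thr3 peptide; compound tested at 0.00046–1 μM final in 2% DMSO. Kinase reaction ran 1 h at 25-30° C, followed by 1 h development. The coumarin/fluorescein emission ratio (445/520 nm) gave % phosphorylation, and IC50 was fitted from inhibition relative to uninhibited control.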

[1] = system: p-RSK (Thr359) in colo205 cells; assay: p-RSK (Thr359) Acumen Assay in Colo205; type: cell-based; settings: Homo sapiens, COLO 205, 1 hour compound incubation, read-out: Example 19 IC50
How it was run: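 Colo205 cells (4000/well, seeded overnight in 10% FBS) were exposed 1 hour at 37° C to compound added from a 3–0.001 μM dilution series in 5% DMSO. Cells were then fixed, permeabilised and immunostained for p-RSK Thr359, with PI counterstain. Acumen cytometry gave the percentage of positive cells, normalised to untreated wells and 3 uM GDC0994 wells, for the IC50 fit.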

T1 sequence (P28482 whole entry): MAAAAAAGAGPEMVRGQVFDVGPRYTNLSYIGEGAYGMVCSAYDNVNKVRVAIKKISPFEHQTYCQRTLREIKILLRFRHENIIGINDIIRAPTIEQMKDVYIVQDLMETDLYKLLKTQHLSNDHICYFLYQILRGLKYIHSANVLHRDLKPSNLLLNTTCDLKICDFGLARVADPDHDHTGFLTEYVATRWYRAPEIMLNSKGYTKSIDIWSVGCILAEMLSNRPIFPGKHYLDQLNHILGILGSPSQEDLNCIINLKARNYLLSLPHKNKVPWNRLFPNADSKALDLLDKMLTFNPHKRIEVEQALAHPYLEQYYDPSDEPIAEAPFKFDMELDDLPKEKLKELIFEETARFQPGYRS

Structure (SMILES)	IC50 (MAPK1(ERK2) enzyme) [nM]	IC50 [1] [nM]
CCc1cnc(Nc2ccnn2C)cc1-c1cc2n(c1)C[C@H](OC)Cn1c-2nnc1C1(C(F)(F)F)CCC1 [Compound 147]	≤ 5	> 100
Cc1cnc(Nc2ccnn2C)nc1-c1cc2n(c1)CCn1c-2nnc1C(F)(F)c1ccccc1Cl [Compound 94]	≤ 5	≤ 100
Cn1nccc1Nc1cc(-c2cc3n(c2)CCCn2c-3nnc2C2(C(F)F)CCCC2)c(Cl)cn1 [Compound 81]	≤ 5	≤ 100
Cc1cnc(NC2CCOCC2)nc1-c1cc2n(c1)CCCn1c-2nnc1C1(C(F)(F)F)CCC1 [Compound 277]	≤ 5	≤ 100
Cn1nccc1Nc1nccc(-c2cc3n(c2)CCCn2c(COc4ccccc4F)nnc2-3)n1 [Compound 37]	≤ 5	≤ 100
Fc1ccccc1OCc1nnc2n1CCCn1cc(-c3cc(NC4CC4)ncc3C(F)(F)F)cc1-2 [Compound 252]	> 10	> 100
Cn1nccc1Nc1nccc(-c2cn3c(c2F)-c2nnc(C4(C(F)(F)F)CCC4)n2CCC3)n1 [Compound 243]	≤ 5	> 100
Cn1nccc1Nc1nccc(-c2cc3n(c2)C[C@H](CF)n2c-3nnc2C(F)(F)n2cc(Cl)cn2)n1 [Compound 111]	≤ 5	> 100
Cc1cnc(NC2CC(F)(F)C2)nc1-c1cc2n(c1)CCCn1c-2nnc1C1(C(F)(F)F)CCC1 [Compound 278]	≤ 5	> 100
Cn1nccc1Nc1cc(-c2cc3n(c2)C[C@H](CF)n2c-3nnc2C(F)(F)c2ccccc2Cl)c(Cl)cn1 [Compound 206]	> 10	≤ 100
Cc1cnc(Nc2ccnn2C)nc1-c1cc2n(c1)CCCn1c-2nnc1C1(C(F)(F)F)CCCC1 [Compound 28]	≤ 5	≤ 100
Cn1nccc1Nc1cc(-c2cc3n(c2)CC(F)(F)Cn2c-3nnc2C2(C(F)(F)F)CC2)c(Cl)cn1 [Compound 140]	≤ 5	≤ 100
Cc1cnc(Nc2ccnn2C)cc1-c1cc2n(c1)C[C@H](C)n1c-2nnc1C(F)(F)c1ccccc1Cl [Compound 118]	> 10	≤ 100
CCC(F)(F)c1nnc2n1[C@@H](CF)Cn1cc(-c3cc(Nc4ccnn4C)ncc3Cl)cc1-2 [Compound 61]	≤ 5	≤ 100
Cc1cnc(Nc2ccnn2C(F)F)nc1-c1cn2c(n1)-c1nnc(C(F)(F)c3ccccc3Cl)n1[C@@H](C)C2 [Compound 228]	≤ 5	≤ 100
COc1ccccc1C(F)(F)c1nnc2n1[C@@H](CF)Cn1cc(-c3nc(Nc4ccnn4C)ncc3C)cc1-2 [Compound 167]	≤ 5	≤ 100
Cc1cnc(Nc2ccnn2C)cc1-c1cc2n(c1)C(C)CCn1c-2nnc1C1(C(F)(F)F)CCC1 (stereo not shown) [Compound 77]	≤ 5	≤ 100
C[C@H]1Cn2cc(-c3ccnc(Nc4ccnn4C)c3)cc2-c2nnc(C(F)(F)c3ccccc3F)n21 [Compound 69]	≤ 5	> 100
C[C@H]1Cn2cc(-c3cc(Nc4ccnn4C)ncc3Cl)cc2-c2nnc(C(F)(F)n3cc(Cl)cn3)n21 [Compound 157]	5 to 10	≤ 100
Cn1nccc1Nc1cc(-c2cc3n(c2)CC2(CC2)Cn2c-3nnc2C2(C(C)(F)F)CCC2)c(Cl)cn1 [Compound 136]	> 10	≤ 100
Cc1cnc(Nc2ccnn2C)nc1-c1cc2n(c1)C[C@H](CF)n1c-2nnc1C(F)(F)c1ccccc1F [Compound 131]	≤ 5	≤ 100
Cc1cnc(Nc2ccnn2C)nc1-c1cc2n(c1)C[C@H](C(F)F)n1c-2nnc1C(F)(F)c1ccccc1F [Compound 186]	5 to 10	≤ 100
Cc1cnc(Nc2ccnn2C)cc1-c1cc2n(c1)C[C@H](CF)n1c-2nnc1C(F)(F)c1ccc(F)c(F)c1 [Compound 181]	5 to 10	> 100
Cc1cnc(Nc2ccnn2C)cc1-c1cc2n(c1)C[C@H](C(F)F)n1c-2nnc1C(F)(F)n1cc(Cl)cn1 [Compound 198]	≤ 5	≤ 100
Cc1cnc(N[C@@H](C)CO)nc1-c1cc2n(c1)CCCn1c-2nnc1C1(C(F)(F)F)CCC1 [Compound 275, (S)-2-((5-methyl-4-(3-(1-(trifluoromethyl)cyclobutyl)-6,7-dihydro-5H-pyrrolo[1,2-a][1,2,4]triazolo[3,4-c][1,4]diazepin-10-yl)pyrimidin-2-yl)amino)propan-1-ol]	≤ 5	≤ 100

Structure (SMILES)	IC50 (MAPK1(ERK2) enzyme) [nM]	IC50 [1] [nM]
Cn1nccc1Nc1cc(-c2cc3n(c2)CCCn2c(COc4ccccc4F)nnc2-3)c(C(F)(F)F)cn1 [Compound 272]	> 10	≤ 100
Cc1cnc(Nc2ccnn2C)cc1-c1cc2n(c1)[C@@H]1CC[C@@H](C1)n1c-2nnc1C(F)(F)C(F)F [Compound 65]	≤ 5	≤ 100
C[C@@H](c1ccccc1)c1nnc2n1CCCn1cc(-c3cc(Nc4ccnn4C)ncc3Cl)cc1-2 [Compound 15]	5 to 10	≤ 100
Cn1nccc1Nc1nccc(-c2cc3n(c2)C[C@H](CF)n2c-3nnc2C(F)(F)c2ccccc2F)n1 [Compound 100]	≤ 5	≤ 100
COc1cnc(Nc2ccnn2C)cc1-c1cc2n(c1)CC(F)(F)Cn1c-2nnc1C1(C(F)(F)F)CCC1 [Compound 214]	5 to 10	> 100
Cn1nccc1Nc1cc(-c2cc3n(c2)CC2(COC2)n2c(CCC(F)(F)F)nnc2-3)c(Cl)cn1 [Compound 305]	≤ 5	> 100
Cc1cnc(Nc2ccnn2C)cc1-c1cc2n(c1)CC1(CC1)Cn1c-2nnc1C1(C(F)(F)F)CCC1 [Compound 258]	≤ 5	≤ 100
Cc1cnc(Nc2ccnn2CC(F)F)nc1-c1cc2n(c1)C[C@H](C)n1c-2nnc1C(F)(F)c1ccccc1F [Compound 298]	> 10	≤ 100
Cc1cnc(Nc2ccnn2C)cc1-c1cc2n(c1)C[C@H](CF)n1c-2nnc1C(F)(F)c1sccc1Cl [Compound 195]	≤ 5	≤ 100
Cn1nccc1Nc1cc(-c2cc3n(c2)CCn2c(Cc4ccccc4F)nnc2-3)c(Cl)cn1 [Compound 9]	≤ 5	≤ 100
Cn1nccc1Nc1cc(-c2cc3n(c2)C[C@H](CF)n2c-3nnc2C(F)(F)c2ccon2)c(Cl)cn1 [Compound 112]	5 to 10	≤ 100
Cc1cnc(Nc2ccnn2C)cc1-c1cc2n(c1)C[C@H](CF)n1c-2nnc1C(F)(F)C(F)(F)F [Compound 76]	≤ 5	> 100
Cc1cnc(Nc2ccnn2C)nc1-c1cn2c(n1)-c1nnc(C(F)(F)c3ccccc3Cl)n1[C@@H](CF)C2 [Compound 225]	≤ 5	≤ 100
COCCn1nccc1Nc1ncc(C)c(-c2cc3n(c2)C[C@H](C)n2c-3nnc2C(F)(F)c2ccccc2F)n1 [Compound 296]	5 to 10	≤ 100
Cc1cccnc1C(F)(F)c1nnc2n1[C@@H](CF)Cn1cc(-c3cc(Nc4ccnn4C)ncc3Cl)cc1-2 [Compound 175]	≤ 5	> 100
Cn1nccc1Nc1cc(-c2cc3n(c2)CCCn2c-3nnc2[C@](C)(O)C(F)(F)F)c(Cl)cn1 [Compound 26]	≤ 5	≤ 100
Cc1nonc1C(F)(F)c1nnc2n1[C@@H](C)Cn1cc(-c3cc(Nc4ccnn4C)ncc3Cl)cc1-2 [Compound 103]	5 to 10	≤ 100
Cn1nccc1Nc1ncnc(-c2cc3n(c2)C[C@H](CF)n2c-3nnc2C(F)(F)c2ccccc2Cl)n1 [Compound 144]	≤ 5	≤ 100
Cc1c(-c2ccnc(Nc3ccnn3C)n2)cn2c1-c1nnc(Nc3ccccc3F)n1CCC2 [Compound 42]	≤ 5	> 100
Cc1nonc1C(F)(F)c1nnc2n1[C@@H](CF)Cn1cc(-c3cc(Nc4ccnn4C)ncc3Cl)cc1-2 [Compound 158]	5 to 10	≤ 100
Cn1nccc1Nc1cc(-c2cc3n(c2)CCCn2c(COC4(C(F)(F)F)CCC4)nnc2-3)c(Cl)cn1 [Compound 34]	> 10	> 100
Cn1nccc1Nc1cc(-c2cc3n(c2)CC(F)(F)Cn2c(Cn4ncc5ccccc54)nnc2-3)c(Cl)cn1 [Compound 199]	5 to 10	> 100
Cc1cnc(Nc2ccnn2C(F)F)nc1-c1cn2c(n1)-c1nnc(C(F)(F)c3ccccc3F)n1[C@@H](C)C2 [Compound 226]	≤ 5	≤ 100
Cn1nccc1Nc1cc(-c2cc3n(c2)C[C@H](CF)n2c-3nnc2C2(C(C)(F)F)CCC2)c(Cl)cn1 [Compound 116]	5 to 10	> 100
Cc1cnc(Nc2ccnn2C)cc1-c1cc2n(c1)CC1(CCC1)Cn1c-2nnc1C1(C(F)(F)F)CCC1 [Compound 129]	≤ 5	≤ 100
